Results as given in patent publication US9944602B2, “Piperidinone herbicides” (E. I. DU PONT DE NEMOURS AND COMPANY, priority 2014, dated 2018).

How the values were obtained:
Type in all cases: in vivo
[1] = system: pigweed (Amaranthus retroflexus); experiment: Test A postemergence pigweed; details: 0 to 100 scale, 0 is no effect, 100 is complete control
In short: (§1)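 Directed soil spray at planting gives preemergence data; foliar application to one- to two-leaf plants gives postemergence data. Response is visual injury relative to untreated controls about 10 d after treatment, scored 0–100.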

[2] = system: galium (catchweed bedstraw, Galium aparine); experiment: Test A postemergence galium; details: 0 to 100 scale, 0 is no effect, 100 is complete control
In short: as §1

corn (Zea mays) = experiment: Test A postemergence corn; details: 0 to 100 scale, 0 is no effect, 100 is complete control
In short: as §1

[3] = system: pigweed (Amaranthus retroflexus); experiment: Test A preemergence pigweed; details: 0 to 100 scale, 0 no effect, 100 complete control
In short: as §1

rice (Oryza sativa) = experiment: Test B flooded paddy test rice; details: Table B, Flood, scale 0 to 100
In short: (§2)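 Plants grown to the 2-leaf stage; pots flooded to 3 cm above soil at treatment, compound applied directly into paddy water, depth held throughout. Greenhouse 13 to 15 d, then visual evaluation against untreated controls.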

[4] = system: foxtail, giant (giant foxtail, Setaria faberii); experiment: Test A preemergence foxtail, giant; details: 0 to 100 scale, 0 no effect, 100 complete control
In short: as §1

[5] = system: wheat (Triticum aestivum); experiment: Test A postemergence wheat; details: 0 to 100 scale, 0 is no effect, 100 is complete control
In short: as §1

[6] = system: sedge, umbrella (small-flower umbrella sedge, Cyperus difformis); experiment: Test B flooded paddy test sedge, umbrella; details: Table B, Flood, scale 0 to 100
In short: as §2

[7] = system: ryegrass, Italian (Italian ryegrass, Lolium multiflorum); experiment: Test A postemergence ryegrass, Italian; details: 0 to 100 scale, 0 is no effect, 100 is complete control
In short: as §1

[8] = system: ragweed (common ragweed, Ambrosia elatior); experiment: Test A preemergence ragweed; details: 0 to 100 scale, 0 no effect, 100 complete control
In short: as §1

[9] = system: barnyardgrass (Echinochloa crus-galli); experiment: Test B flooded paddy test barnyardgrass; details: Table B, Flood, scale 0 to 100
In short: as §2

[10] = system: foxtail, giant (giant foxtail, Setaria faberii); experiment: Test A postemergence foxtail, giant; details: 0 to 100 scale, 0 is no effect, 100 is complete control
In short: as §1

[11] = system: blackgrass (Alopecurus myosuroides); experiment: Test A postemergence blackgrass; details: 0 to 100 scale, 0 is no effect, 100 is complete control
In short: as §1

[12] = system: ragweed (common ragweed, Ambrosia elatior); experiment: Test A postemergence ragweed; details: 0 to 100 scale, 0 is no effect, 100 is complete control
In short: as §1

kochia (Kochia scoparia) [13] = experiment: Test A postemergence kochia; details: 0 to 100 scale, 0 is no effect, 100 is complete control
In short: as §1

kochia (Kochia scoparia) [14] = experiment: Test A preemergence kochia; details: 0 to 100 scale, 0 no effect, 100 complete control
In short: as §1

[15] = system: ryegrass, Italian (Italian ryegrass, Lolium multiflorum); experiment: Test A preemergence ryegrass, Italian; details: 0 to 100 scale, 0 no effect, 100 complete control
In short: as §1

[16] = system: barnyardgrass (Echinochloa crus-galli); experiment: Test A postemergence barnyardgrass; details: 0 to 100 scale, 0 is no effect, 100 is complete control
In short: as §1

[17] = system: barnyardgrass (Echinochloa crus-galli); experiment: Test A preemergence barnyardgrass; details: 0 to 100 scale, 0 no effect, 100 complete control
In short: as §1

[18] = system: ducksalad (Heteranthera limosa); experiment: Test B flooded paddy test ducksalad; details: Table B, Flood, scale 0 to 100
In short: as §2

## O=C(Nc1ccccc1C(F)(F)F)C1C(=O)N(Cc2ccccc2)CCC1c1ccc(F)cc1 (stereo not drawn) [Compound 51]
[1]; 125 g ai/ha
  Plant response rating, Pigweed: 0
[1]; 500 g ai/ha
  Plant response rating, Pigweed: 0
[2]; 125 g ai/ha
  Plant response rating, Galium: 0
[2]; 500 g ai/ha
  Plant response rating, Galium: 0
Corn (Zea mays); 125 g ai/ha
  Plant response rating, Corn: 0
Corn (Zea mays); 500 g ai/ha
  Plant response rating, Corn: 0
[3]; 125 g ai/ha
  Pigweed plant response rating: 0
[3]; 500 g ai/ha
  Pigweed plant response rating: 0
Rice (Oryza sativa); 250 g ai/ha
  Plant response rating: 0
[4]; 125 g ai/ha
  Foxtail, Giant plant response rating: 0
[4]; 500 g ai/ha
  Foxtail, Giant plant response rating: 0
[5]; 125 g ai/ha
  Plant response rating, Wheat: 0
[5]; 500 g ai/ha
  Plant response rating, Wheat: 0
[6]; 250 g ai/ha
  Plant response rating: 0
[7]; 125 g ai/ha
  Plant response rating, Ryegrass, Italian: 0
[7]; 500 g ai/ha
  Plant response rating, Ryegrass, Italian: 0
[8]; 125 g ai/ha
  Ragweed plant response rating: 0
[8]; 500 g ai/ha
  Ragweed plant response rating: 0
[9]; 250 g ai/ha
  Plant response rating: 0
[10]; 125 g ai/ha
  Plant response rating, Foxtail, Giant: 0
[10]; 500 g ai/ha
  Plant response rating, Foxtail, Giant: 0
[11]; 125 g ai/ha
  Plant response rating, Blackgrass: 0
[11]; 500 g ai/ha
  Plant response rating, Blackgrass: 0
[12]; 125 g ai/ha
  Plant response rating, Ragweed: 0
[12]; 500 g ai/ha
  Plant response rating, Ragweed: 0
Kochia (Kochia scoparia) [13]; 125 g ai/ha
  Plant response rating, Kochia: 0
Kochia (Kochia scoparia) [13]; 500 g ai/ha
  Plant response rating, Kochia: 0
Kochia (Kochia scoparia) [14]; 125 g ai/ha
  Kochia plant response rating: 0
Kochia (Kochia scoparia) [14]; 500 g ai/ha
  Kochia plant response rating: 0
[15]; 125 g ai/ha
  Ryegrass, Italian plant response rating: 0
[15]; 500 g ai/ha
  Ryegrass, Italian plant response rating: 0
[16]; 125 g ai/ha
  Plant response rating, Barnyardgrass: 0
[16]; 500 g ai/ha
  Plant response rating, Barnyardgrass: 0
[17]; 125 g ai/ha
  Barnyardgrass plant response rating: 0
[17]; 500 g ai/ha
  Barnyardgrass plant response rating: 0
[18]; 250 g ai/ha
  Plant response rating: 0

## O=C1NCCC(c2cccc(Cl)c2)C1C(=O)Nc1ccccc1F (racemic) [Compound 34]
[1]; 125 g ai/ha
  Plant response rating, Pigweed: 0
[1]; 500 g ai/ha
  Plant response rating, Pigweed: 0
[2]; 125 g ai/ha
  Plant response rating, Galium: 0
[2]; 500 g ai/ha
  Plant response rating, Galium: 0
Corn (Zea mays); 125 g ai/ha
  Plant response rating, Corn: 0
Corn (Zea mays); 500 g ai/ha
  Plant response rating, Corn: 0
[3]; 125 g ai/ha
  Pigweed plant response rating: 0
[3]; 500 g ai/ha
  Pigweed plant response rating: 30
Rice (Oryza sativa); 500 g ai/ha
  Plant response rating: 0
[4]; 125 g ai/ha
  Foxtail, Giant plant response rating: 50
[4]; 500 g ai/ha
  Foxtail, Giant plant response rating: 90
[5]; 125 g ai/ha
  Plant response rating, Wheat: 0
[5]; 500 g ai/ha
  Plant response rating, Wheat: 0
[6]; 500 g ai/ha
  Plant response rating: 0
[7]; 125 g ai/ha
  Plant response rating, Ryegrass, Italian: 0
[7]; 500 g ai/ha
  Plant response rating, Ryegrass, Italian: 0
[8]; 125 g ai/ha
  Ragweed plant response rating: 0
[8]; 500 g ai/ha
  Ragweed plant response rating: 30
[9]; 500 g ai/ha
  Plant response rating: 0
[10]; 125 g ai/ha
  Plant response rating, Foxtail, Giant: 40
[10]; 500 g ai/ha
  Plant response rating, Foxtail, Giant: 80
[11]; 125 g ai/ha
  Plant response rating, Blackgrass: 0
[11]; 500 g ai/ha
  Plant response rating, Blackgrass: 0
[12]; 125 g ai/ha
  Plant response rating, Ragweed: 0
[12]; 500 g ai/ha
  Plant response rating, Ragweed: 0
Kochia (Kochia scoparia) [13]; 125 g ai/ha
  Plant response rating, Kochia: 0
Kochia (Kochia scoparia) [13]; 500 g ai/ha
  Plant response rating, Kochia: 0
Kochia (Kochia scoparia) [14]; 125 g ai/ha
  Kochia plant response rating: 0
Kochia (Kochia scoparia) [14]; 500 g ai/ha
  Kochia plant response rating: 30
[15]; 125 g ai/ha
  Ryegrass, Italian plant response rating: 0
[15]; 500 g ai/ha
  Ryegrass, Italian plant response rating: 0
[16]; 125 g ai/ha
  Plant response rating, Barnyardgrass: 40
[16]; 500 g ai/ha
  Plant response rating, Barnyardgrass: 90
[17]; 125 g ai/ha
  Barnyardgrass plant response rating: 40
[17]; 500 g ai/ha
  Barnyardgrass plant response rating: 90
[18]; 500 g ai/ha
  Plant response rating: 40

## O=C1NCC[C@@H](c2ccc(C(F)(F)F)cc2)[C@@H]1C(=O)Nc1cccc(F)c1F [Compound 23]
[1]; 125 g ai/ha
  Plant response rating, Pigweed: 0
[1]; 500 g ai/ha
  Plant response rating, Pigweed: 0
[2]; 125 g ai/ha
  Plant response rating, Galium: 0
[2]; 500 g ai/ha
  Plant response rating, Galium: 20
Corn (Zea mays); 125 g ai/ha
  Plant response rating, Corn: 0
Corn (Zea mays); 500 g ai/ha
  Plant response rating, Corn: 20
[3]; 125 g ai/ha
  Pigweed plant response rating: 0
[3]; 500 g ai/ha
  Pigweed plant response rating: 0
Rice (Oryza sativa); 250 g ai/ha
  Plant response rating: 0
[4]; 125 g ai/ha
  Foxtail, Giant plant response rating: 30
[4]; 500 g ai/ha
  Foxtail, Giant plant response rating: 80
[5]; 125 g ai/ha
  Plant response rating, Wheat: 0
[5]; 500 g ai/ha
  Plant response rating, Wheat: 20
[6]; 250 g ai/ha
  Plant response rating: 0
[7]; 125 g ai/ha
  Plant response rating, Ryegrass, Italian: 0
[7]; 500 g ai/ha
  Plant response rating, Ryegrass, Italian: 20
[8]; 125 g ai/ha
  Ragweed plant response rating: 0
[8]; 500 g ai/ha
  Ragweed plant response rating: 60
[9]; 250 g ai/ha
  Plant response rating: 0
[10]; 125 g ai/ha
  Plant response rating, Foxtail, Giant: 20
[10]; 500 g ai/ha
  Plant response rating, Foxtail, Giant: 60
[11]; 125 g ai/ha
  Plant response rating, Blackgrass: 0
[11]; 500 g ai/ha
  Plant response rating, Blackgrass: 10
[12]; 125 g ai/ha
  Plant response rating, Ragweed: 0
[12]; 500 g ai/ha
  Plant response rating, Ragweed: 0
Kochia (Kochia scoparia) [13]; 125 g ai/ha
  Plant response rating, Kochia: 20
Kochia (Kochia scoparia) [13]; 500 g ai/ha
  Plant response rating, Kochia: 50
Kochia (Kochia scoparia) [14]; 125 g ai/ha
  Kochia plant response rating: 0
Kochia (Kochia scoparia) [14]; 500 g ai/ha
  Kochia plant response rating: 40
[15]; 125 g ai/ha
  Ryegrass, Italian plant response rating: 0
[15]; 500 g ai/ha
  Ryegrass, Italian plant response rating: 20
[16]; 125 g ai/ha
  Plant response rating, Barnyardgrass: 20
[16]; 500 g ai/ha
  Plant response rating, Barnyardgrass: 70
[17]; 125 g ai/ha
  Barnyardgrass plant response rating: 30
[17]; 500 g ai/ha
  Barnyardgrass plant response rating: 70
[18]; 250 g ai/ha
  Plant response rating: 0

## O=C1NCCC(c2cccc(C(F)(F)F)c2)C1C(=O)Nc1cccc(Cl)c1Cl (racemic) [Compound 31]
[1]; 125 g ai/ha
  Plant response rating, Pigweed: 0
[1]; 500 g ai/ha
  Plant response rating, Pigweed: 0
[2]; 125 g ai/ha
  Plant response rating, Galium: 0
[2]; 500 g ai/ha
  Plant response rating, Galium: 0
Corn (Zea mays); 125 g ai/ha
  Plant response rating, Corn: 0
Corn (Zea mays); 500 g ai/ha
  Plant response rating, Corn: 0
[3]; 125 g ai/ha
  Pigweed plant response rating: 0
[3]; 500 g ai/ha
  Pigweed plant response rating: 0
Rice (Oryza sativa); 500 g ai/ha
  Plant response rating: 10
[4]; 125 g ai/ha
  Foxtail, Giant plant response rating: 70
[4]; 500 g ai/ha
  Foxtail, Giant plant response rating: 90
[5]; 125 g ai/ha
  Plant response rating, Wheat: 0
[5]; 500 g ai/ha
  Plant response rating, Wheat: 0
[6]; 500 g ai/ha
  Plant response rating: 0
[7]; 125 g ai/ha
  Plant response rating, Ryegrass, Italian: 0
[7]; 500 g ai/ha
  Plant response rating, Ryegrass, Italian: 0
[8]; 125 g ai/ha
  Ragweed plant response rating: 0
[8]; 500 g ai/ha
  Ragweed plant response rating: 0
[9]; 500 g ai/ha
  Plant response rating: 95
[10]; 125 g ai/ha
  Plant response rating, Foxtail, Giant: 70
[10]; 500 g ai/ha
  Plant response rating, Foxtail, Giant: 80
[11]; 125 g ai/ha
  Plant response rating, Blackgrass: 20
[11]; 500 g ai/ha
  Plant response rating, Blackgrass: 40
[12]; 125 g ai/ha
  Plant response rating, Ragweed: 0
[12]; 500 g ai/ha
  Plant response rating, Ragweed: 0
Kochia (Kochia scoparia) [13]; 125 g ai/ha
  Plant response rating, Kochia: 0
Kochia (Kochia scoparia) [13]; 500 g ai/ha
  Plant response rating, Kochia: 0
Kochia (Kochia scoparia) [14]; 125 g ai/ha
  Kochia plant response rating: 0
Kochia (Kochia scoparia) [14]; 500 g ai/ha
  Kochia plant response rating: 0
[15]; 125 g ai/ha
  Ryegrass, Italian plant response rating: 0
[15]; 500 g ai/ha
  Ryegrass, Italian plant response rating: 0
[16]; 125 g ai/ha
  Plant response rating, Barnyardgrass: 60
[16]; 500 g ai/ha
  Plant response rating, Barnyardgrass: 80
[17]; 125 g ai/ha
  Barnyardgrass plant response rating: 70
[17]; 500 g ai/ha
  Barnyardgrass plant response rating: 80
[18]; 500 g ai/ha
  Plant response rating: 0
